The values that follow come from patent US20260070945A1, “MACROCYCLIC IMMUNOMODULATORS” (Bristol-Myers Squibb Company, priority 2022, published 2026).

Where a SMILES comes first, the peptide text is derived from it. Bridges are numbered along the chain shown (N, C = ends). [ ]: non-standard residue; d: D form. The star is where a group is joined. X15 = NCCCC[C@H](NC(=O)CNCCNCCN*)C(=O)NCCCCCCCCCCC(=O)O; X3 = NCCC[C@H](NC(=O)CNCCNCCN*)C(=O)NCCCCCCCCCCC(=O)O; X4 = NCC[C@H](NC(=O)CNCCNCCN*)C(=O)NCCCCCCCCCCC(=O)O; X7 = NC[C@H](NC(=O)CNCCNCCN*)C(=O)NCCCCCCCCCCC(=O)O; Phe(4-COOH) = N[C@@H](Cc1ccc(C(=O)O)cc1)C(=O)O; Bip = N[C@@H](Cc1ccc(-c2ccccc2)cc1)C(=O)O; Phe(3-Me) = Cc1cccc(C[C@H](N)C(=O)O)c1; Cha = N[C@@H](CC1CCCCC1)C(=O)O; Carboxymethyl = O=C(O)C*; NMeA = CN[C@@H](C)C(=O)O; Orn = NCCC[C@H](N)C(=O)O; Aun = NCCCCCCCCCCC(=O)O; Dab = NCC[C@H](N)C(=O)O; Dap = NC[C@H](N)C(=O)O; AEEA = NCCOCCOCC(=O)O

By IC50 is commonly meant the concentration that gives 50% inhibition.

In this assay the target is T1, PD-1/PD-L1 interaction (PE-labeled human PD-L1-Ig binding to Jurkat cell line over-expressing human PD-1) (Homo sapiens, UniProt Q15116).
T1 construct: expressed in transfected cells; host or cells: Jurkat
T1 sequence (Q15116 25-288): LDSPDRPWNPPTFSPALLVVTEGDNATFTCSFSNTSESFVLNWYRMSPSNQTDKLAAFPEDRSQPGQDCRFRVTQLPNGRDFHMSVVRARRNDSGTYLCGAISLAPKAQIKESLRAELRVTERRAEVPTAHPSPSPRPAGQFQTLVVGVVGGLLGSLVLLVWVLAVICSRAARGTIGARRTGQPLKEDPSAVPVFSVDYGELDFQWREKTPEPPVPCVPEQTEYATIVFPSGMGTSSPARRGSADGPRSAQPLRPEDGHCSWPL
Description: Jurkat-PD-1 Cell Binding High-Content Screening Assay (CBA). As to conditions: Jurkat-hPD-1 cells, PE-labeled PD-L1-Ig 20 nM final; read-out: Jurkat HPD1 PDL1 IC50. The procedure, abridged: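 Binding of 20 nM (final) PE-tagged PD-L1-Ig to compound-pretreated Jurkat-hPD-1 cells was measured by high-content imaging after 1 h. Pretreatment ran 2 h at 37 °C in DMEM with 10% fetal calf serum.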
Take `Cc1cccc(C[C@@H]2NC(=O)[C@H](CC(=O)O)NC(=O)[C@H](Cc3ccc(OCC(=O)O)cc3)NC(=O)[C@H](CN)NC(=O)CSC[C@@H](C(=O)NCC(=O)N[C@@H](CC(=O)O)C(=O)NCCCCCCCCCCC(=O)O)NC(=O)[C@H](CO)NC(=O)[C@H](C(C)C)NC(=O)[C@H](CC(C)C)NC(=O)[C@H](CC(N)=O)NC(=O)[C@@H](CC(C)C)NC(=O)[C@H](C)N(C)C(=O)[C@H](C(C)C)NC(=O)[C@H](Cc3ccc(-c4ccccc4)cc3)NC(=O)[C@H](CC(C)C)NC2=O)c1` [Example 1061] ({CH2CO}-[Dap]Y(Carboxymethyl)D[Phe(3-Me)]L[Bip]V[NMeA][dL]NLVSCGD[Aun]-OH; thioether N-14): the IC50 came out at 42.9 nM. For `Cc1cccc(C[C@@H]2NC(=O)[C@H](CC(=O)O)NC(=O)[C@H](Cc3ccc(OCC(=O)O)cc3)NC(=O)[C@H](CN)NC(=O)CSC[C@@H](C(=O)NCCNCCNCC(=O)N[C@@H](CN)C(=O)NCCCCCCCCCCC(=O)O)NC(=O)[C@H](CO)NC(=O)[C@H](C(C)C)NC(=O)[C@H](CC(C)C)NC(=O)[C@H](CC(N)=O)NC(=O)[C@@H](CC(C)C)NC(=O)[C@H](C)N(C)C(=O)[C@H](C(C)C)NC(=O)[C@H](Cc3ccc(-c4ccccc4)cc3)NC(=O)[C@H](CC(C)C)NC2=O)c1` [Example 1062] ({CH2CO}-[Dap]Y(Carboxymethyl)D[Phe(3-Me)]L[Bip]V[NMeA][dL]NLVSC-X7; thioether N-14) the value was 26.9 nM; for `Cc1cccc(C[C@@H]2NC(=O)[C@H](CC(=O)O)NC(=O)[C@H](Cc3ccc(OCC(=O)O)cc3)NC(=O)[C@H](CN)NC(=O)CSC[C@@H](C(=O)NCCNCCNCC(=O)N[C@@H](CCN)C(=O)NCCCCCCCCCCC(=O)O)NC(=O)[C@H](CO)NC(=O)[C@H](C(C)C)NC(=O)[C@H](CC(C)C)NC(=O)[C@H](CC(N)=O)NC(=O)[C@@H](CC(C)C)NC(=O)[C@H](C)N(C)C(=O)[C@H](C(C)C)NC(=O)[C@H](Cc3ccc(-c4ccccc4)cc3)NC(=O)[C@H](CC(C)C)NC2=O)c1` [Example 1063] ({CH2CO}-[Dap]Y(Carboxymethyl)D[Phe(3-Me)]L[Bip]V[NMeA][dL]NLVSC-X4; thioether N-14), 27.9 nM.

Consider `Cc1cccc(C[C@@H]2NC(=O)[C@H](CC(=O)O)NC(=O)[C@H](Cc3ccc(OCC(=O)O)cc3)NC(=O)[C@H](CN)NC(=O)CSC[C@@H](C(=O)NCCNCCNCC(=O)N[C@@H](CCCN)C(=O)NCCCCCCCCCCC(=O)O)NC(=O)[C@H](CO)NC(=O)[C@H](C(C)C)NC(=O)[C@H](CC(C)C)NC(=O)[C@H](CC(N)=O)NC(=O)[C@@H](CC(C)C)NC(=O)[C@H](C)N(C)C(=O)[C@H](C(C)C)NC(=O)[C@H](Cc3ccc(-c4ccccc4)cc3)NC(=O)[C@H](CC(C)C)NC2=O)c1` [Example 1064] ({CH2CO}-[Dap]Y(Carboxymethyl)D[Phe(3-Me)]L[Bip]V[NMeA][dL]NLVSC-X3; thioether N-14), for which the IC50 worked out at 23.6 nM.

For `Cc1cccc(C[C@@H]2NC(=O)[C@H](CC(=O)O)NC(=O)[C@H](Cc3ccc(OCC(=O)O)cc3)NC(=O)[C@H](CN)NC(=O)CSC[C@@H](C(=O)NCCNCCNCC(=O)N[C@@H](CCCCN)C(=O)NCCCCCCCCCCC(=O)O)NC(=O)[C@H](CO)NC(=O)[C@H](C(C)C)NC(=O)[C@H](CC(C)C)NC(=O)[C@H](CC(N)=O)NC(=O)[C@@H](CC(C)C)NC(=O)[C@H](C)N(C)C(=O)[C@H](C(C)C)NC(=O)[C@H](Cc3ccc(-c4ccccc4)cc3)NC(=O)[C@H](CC(C)C)NC2=O)c1` [Example 1065] ({CH2CO}-[Dap]Y(Carboxymethyl)D[Phe(3-Me)]L[Bip]V[NMeA][dL]NLVSC-X15; thioether N-14), the IC50 worked out at 32.4 nM. For `Cc1cccc(C[C@@H]2NC(=O)[C@H](CC(=O)O)NC(=O)[C@H](Cc3ccc(OCC(=O)O)cc3)NC(=O)[C@H](CN)NC(=O)CSC[C@@H](C(=O)N[C@@H](CC(=O)O)C(=O)NCCCCCCCCCCC(=O)O)NC(=O)[C@H](CO)NC(=O)[C@H](C(C)C)NC(=O)[C@H](CC(C)C)NC(=O)[C@H](CC(N)=O)NC(=O)[C@@H](CC(C)C)NC(=O)[C@H](C)N(C)C(=O)[C@H](C(C)C)NC(=O)[C@H](Cc3ccc(-c4ccccc4)cc3)NC(=O)[C@H](CC(C)C)NC2=O)c1` [Example 1067] ({CH2CO}-[Dap]Y(Carboxymethyl)D[Phe(3-Me)]L[Bip]V[NMeA][dL]NLVSCD[Aun]-OH; thioether N-14) the value was 106 nM.

Take `Cc1cccc(C[C@@H]2NC(=O)[C@H](CC(=O)O)NC(=O)[C@H](Cc3ccc(OCC(=O)O)cc3)NC(=O)[C@H](CN)NC(=O)CSC[C@@H](C(=O)N[C@@H](CCC(=O)O)C(=O)NCCCCCCCCCCC(=O)O)NC(=O)[C@H](CO)NC(=O)[C@H](C(C)C)NC(=O)[C@H](CC(C)C)NC(=O)[C@H](CC(N)=O)NC(=O)[C@@H](CC(C)C)NC(=O)[C@H](C)N(C)C(=O)[C@H](C(C)C)NC(=O)[C@H](Cc3ccc(-c4ccccc4)cc3)NC(=O)[C@H](CC(C)C)NC2=O)c1` [Example 1068] ({CH2CO}-[Dap]Y(Carboxymethyl)D[Phe(3-Me)]L[Bip]V[NMeA][dL]NLVSCE[Aun]-OH; thioether N-14): the IC50 turned out to be 172 nM. In the case of `CC[C@H](C)[C@@H]1NC(=O)[C@H](Cc2ccc(-c3ccccc3)cc2)NC(=O)[C@H](CC(C)C)NC(=O)[C@H](Cc2c[nH]c3ccccc23)NC(=O)[C@H](CC(=O)O)NC(=O)[C@H](Cc2ccc(C(=O)O)cc2)NC(=O)[C@H](Cc2ccc(OCC(=O)O)cc2)NC(=O)CSC[C@@H](C(=O)NCCOCCOCC(=O)NCCCCCCCCCCC(=O)O)NC(=O)[C@H](CO)NC(=O)[C@H](C(C)C)NC(=O)[C@H](CC2CCCCC2)NC(=O)[C@H](CCN)NC(=O)[C@@H](CC(C)C)NC(=O)[C@H](C)N(C)C1=O` [Example 1069] ({CH2CO}-Y(Carboxymethyl)[Phe(4-COOH)]DWL[Bip]I[NMeA][dL][Dab][Cha]VSC[AEEA][Aun]-OH; thioether N-14) it was 40.7 nM; in that of `CC[C@H](C)[C@@H]1NC(=O)[C@H](Cc2ccc(-c3ccccc3)cc2)NC(=O)[C@H](CC(C)C)NC(=O)[C@H](Cc2c[nH]c3ccccc23)NC(=O)[C@H](CC(=O)O)NC(=O)[C@H](Cc2ccc(C(=O)O)cc2)NC(=O)[C@H](Cc2ccc(OCC(=O)O)cc2)NC(=O)CSC[C@@H](C(=O)N[C@@H](CN)C(=O)NCCCCCCCCCCC(=O)O)NC(=O)[C@H](CO)NC(=O)[C@H](C(C)C)NC(=O)[C@H](CC2CCCCC2)NC(=O)[C@H](CCN)NC(=O)[C@@H](CC(C)C)NC(=O)[C@H](C)N(C)C1=O` [Example 1070] ({CH2CO}-Y(Carboxymethyl)[Phe(4-COOH)]DWL[Bip]I[NMeA][dL][Dab][Cha]VSC[Dap][Aun]-OH; thioether N-14), 39.2 nM. For `CC[C@H](C)[C@@H]1NC(=O)[C@H](Cc2ccc(-c3ccccc3)cc2)NC(=O)[C@H](CC(C)C)NC(=O)[C@H](Cc2c[nH]c3ccccc23)NC(=O)[C@H](CC(=O)O)NC(=O)[C@H](Cc2ccc(C(=O)O)cc2)NC(=O)[C@H](Cc2ccc(OCC(=O)O)cc2)NC(=O)CSC[C@@H](C(=O)N[C@@H](CCCN)C(=O)NCCCCCCCCCCC(=O)O)NC(=O)[C@H](CO)NC(=O)[C@H](C(C)C)NC(=O)[C@H](CC2CCCCC2)NC(=O)[C@H](CCN)NC(=O)[C@@H](CC(C)C)NC(=O)[C@H](C)N(C)C1=O` [Example 1072] ({CH2CO}-Y(Carboxymethyl)[Phe(4-COOH)]DWL[Bip]I[NMeA][dL][Dab][Cha]VSC[Orn][Aun]-OH; thioether N-14) the value was 18.3 nM; for `CC[C@H](C)[C@@H]1NC(=O)[C@H](Cc2ccc(-c3ccccc3)cc2)NC(=O)[C@H](CC(C)C)NC(=O)[C@H](Cc2c[nH]c3ccccc23)NC(=O)[C@H](CC(=O)O)NC(=O)[C@H](Cc2ccc(C(=O)O)cc2)NC(=O)[C@H](Cc2ccc(OCC(=O)O)cc2)NC(=O)CSC[C@@H](C(=O)N[C@@H](CCCNC(=N)N)C(=O)NCCCCCCCCCCC(=O)O)NC(=O)[C@H](CO)NC(=O)[C@H](C(C)C)NC(=O)[C@H](CC2CCCCC2)NC(=O)[C@H](CCN)NC(=O)[C@@H](CC(C)C)NC(=O)[C@H](C)N(C)C1=O` [Example 1074] ({CH2CO}-Y(Carboxymethyl)[Phe(4-COOH)]DWL[Bip]I[NMeA][dL][Dab][Cha]VSCR[Aun]-OH; thioether N-14), 43.4 nM.

Regarding `CC[C@H](C)[C@@H]1NC(=O)[C@H](Cc2ccc(-c3ccccc3)cc2)NC(=O)[C@H](CC(C)C)NC(=O)[C@H](Cc2c[nH]c3ccccc23)NC(=O)[C@H](CC(=O)O)NC(=O)[C@H](Cc2ccc(C(=O)O)cc2)NC(=O)[C@H](Cc2ccc(OCC(=O)O)cc2)NC(=O)CSC[C@@H](C(=O)N[C@@H](Cc2c[nH]cn2)C(=O)NCCCCCCCCCCC(=O)O)NC(=O)[C@H](CO)NC(=O)[C@H](C(C)C)NC(=O)[C@H](CC2CCCCC2)NC(=O)[C@H](CCN)NC(=O)[C@@H](CC(C)C)NC(=O)[C@H](C)N(C)C1=O` [Example 1075] ({CH2CO}-Y(Carboxymethyl)[Phe(4-COOH)]DWL[Bip]I[NMeA][dL][Dab][Cha]VSCH[Aun]-OH; thioether N-14), the IC50 turned out to be 20.2 nM. For `CC[C@H](C)[C@@H]1NC(=O)[C@H](Cc2ccc(-c3ccccc3)cc2)NC(=O)[C@H](CC(C)C)NC(=O)[C@H](Cc2c[nH]c3ccccc23)NC(=O)[C@H](CC(=O)O)NC(=O)[C@H](Cc2ccc(C(=O)O)cc2)NC(=O)[C@H](Cc2ccc(OCC(=O)O)cc2)NC(=O)CSC[C@@H](C(=O)N[C@@H](CN)C(=O)NCCOCCOCC(=O)NCCCCCCCCCCC(=O)O)NC(=O)[C@H](CO)NC(=O)[C@H](C(C)C)NC(=O)[C@H](CC2CCCCC2)NC(=O)[C@H](CCN)NC(=O)[C@@H](CC(C)C)NC(=O)[C@H](C)N(C)C1=O` [Example 1076] ({CH2CO}-Y(Carboxymethyl)[Phe(4-COOH)]DWL[Bip]I[NMeA][dL][Dab][Cha]VSC[Dap][AEEA][Aun]-OH; thioether N-14) the value was 16.5 nM.
